# Tests used:
# [1] = system: panel of 90 non-mutant human kinases; settings: FDA-approved TKIs, comparison values; cited from earlier work
# Ripk3−/− MEFs = test: RIPK1 kinase-driven cell death in Ripk3−/− MEFs; assay type: cell-based, mouse; settings: TNFα + TAK1 inhibitor
# RIPK3 [2] = target: T1, RIPK3 (Homo sapiens, UniProt Q9Y572); settings: cited from earlier work
# RIPK3 [3] = settings: cited from earlier work
# necroptosis in cells = test: Necroptosis blockade in cells; assay type: cell-based; settings: read-out: blocking necroptosis in cells IC50
# RIPK3 [4] = target: T1, RIPK3; test: In vitro RIPK3 kinase assay; assay type: biochemical
# influenza = settings: mice and humans ref 36, 37; cited from earlier work
# [5] = system: primary MEFs infected with PR8; test: IAV-induced necroptosis in primary MEFs; assay type: cell-based, mouse; settings: PR8 MOI 2, zVAD 50 μM
# T1 sequence (Q9Y572 1-313): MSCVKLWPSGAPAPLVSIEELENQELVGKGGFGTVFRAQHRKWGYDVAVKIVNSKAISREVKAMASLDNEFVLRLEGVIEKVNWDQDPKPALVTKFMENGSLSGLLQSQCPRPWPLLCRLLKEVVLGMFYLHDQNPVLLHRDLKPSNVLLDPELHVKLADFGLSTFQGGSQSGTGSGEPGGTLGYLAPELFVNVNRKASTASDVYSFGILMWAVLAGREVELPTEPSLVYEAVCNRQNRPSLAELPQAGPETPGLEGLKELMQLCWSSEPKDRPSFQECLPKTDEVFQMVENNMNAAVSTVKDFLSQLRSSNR
compound,measurement,setting,value
Cc1nc(Nc2ncc(C(=O)Nc3c(C)cccc3Cl)s2)cc(N2CCN(CCO)CC2)n1 [Dasatinib],S(35) selectivity score,[1],0.28
N#Cc1cc(N2CCC(C(=O)N3N=CC[C@H]3c3cc(F)cc(F)c3)CC2)ncn1 [GSK’547],activity against RIPK1 kinase-driven cell death,Ripk3−/− MEFs,able to block such death
CNC(=O)c1ccc2c(c1)ncn2-c1ccc(CC(=O)OC(C)(C)C)cc1 [GSK’840],activity against recombinant RIPK3 in vitro,RIPK3 [2],potent activity
same,activity in cells,RIPK3 [3],unexpectedly modest activity
Cc1cc(-c2cnc(N)c3c(-c4ccc5scnc5c4)csc23)n(C)n1 [GSK’843],activity against recombinant RIPK3 in vitro,RIPK3 [2],potent activity
same,activity in cells,RIPK3 [3],unexpectedly modest activity
CCN(CC)CCOc1ccc(Nc2ncc3cc(-c4c(Cl)cccc4Cl)c(=O)n(C)c3n2)cc1 [PD166285],IC50,necroptosis in cells,2880 nM
same,IC50,RIPK3 [4],1080 nM
CCOC(=O)C1=C[C@@H](OC(CC)CC)[C@H](NC(C)=O)[C@@H](N)C1 [oseltamivir],time of administration after infection beyond which therapeutic benefit is lost,influenza,more than 48 h
CC(C)S(=O)(=O)c1ccc2nccc(Nc3ccc4scnc4c3)c2c1 [GSK’872],activity in cells,RIPK3 [3],unexpectedly modest activity
CNC(=O)c1cc(Oc2ccc(NC(=O)Nc3ccc(Cl)c(C(F)(F)F)c3)cc2)ccn1 [Sorafenib],S(35) selectivity score,[1],0.22
Cc1ccc(NC(=O)c2ccc(CN3CCN(C)CC3)cc2)cc1Nc1nccc(-c2cccnc2)n1 [imatinib],IAV-triggered necroptosis,[5],neither the ABL inhibitor imatinib (Gleevec) nor the selective RIPK2 inhibitor CSLP37[32] blocked IAV-triggered necroptosis
CCCS(=O)(=O)Nc1cc(-c2cc(-c3ccc(N4CCNCC4)cc3)cnc2N)cc(F)c1OC [CSLP37],IAV-triggered necroptosis,[5],neither the ABL inhibitor imatinib (Gleevec) nor the selective RIPK2 inhibitor CSLP37[32] blocked IAV-triggered necroptosis

# Reference: paper PMC11151938 (Nature, 2024)
